Results from paper PMC3742645, “The Effect of Polyhydroxylated Alkaloids on Maltase-Glucoamylase” (PLoS ONE, 2013).

Target: T1, ntMGAM (purchased as maltase-glucoamylase from rice, EC 3.2.1.20, Sigma G9259)
T1 construct: gene Os06g0675700; commercial native rice alpha-glucosidase; no human protein source or expression described
Assay: NMR transverse relaxation (CPMG) titration
Format: binding
Conditions: pH 6.8, 310 K, 10 mM sodium phosphate, 10% D2O, protein 18 μM; signal H-9; unit printed as M^-1 under a Kd heading
From the text: NMR transverse relaxation (CPMG) titration on ntMGAM (purchased as maltase-glucoamylase from rice, EC 3.2.1.20, Sigma G9259)

C[C@H]1O[C@H](O[C@H]2[C@H](O)[C@@H](O)[C@@H](O[C@H]3[C@H](O)[C@@H](O)C(O)O[C@@H]3CO)O[C@@H]2CO)[C@H](O)[C@@H](O)[C@@H]1N[C@H]1C=C(CO)[C@@H](O)[C@H](O)[C@H]1O (stereo partly shown) [acarbose]
K d(M^-1): (5.4±0.1)×10^−5 M^−1
